According to patent EP3800188A1, “SUBSTITUTED PYRAZOLOPYRIMIDINES AS IRAK4 INHIBITORS” (Bayer AG, priority 2019, dated 2021):
Read-outs that look alike come from different tables or passages of the source.

Assays:
human IRAK4 = target: T1, human IRAK4 (Homo sapiens, UniProt Q9NWZ3); assay: Human IRAK4 kinase activity inhibition assay (IRAK4 TR-FRET assay); format: biochemical; conditions: 1 mM ATP, GST-human IRAK4, average or median values
T1 construct: GST (N); made in house; host or cells: baculovirus-infected Hi5 (BTI-TN-5B1-4) insect cells
T1 sequence (Q9NWZ3 1-460): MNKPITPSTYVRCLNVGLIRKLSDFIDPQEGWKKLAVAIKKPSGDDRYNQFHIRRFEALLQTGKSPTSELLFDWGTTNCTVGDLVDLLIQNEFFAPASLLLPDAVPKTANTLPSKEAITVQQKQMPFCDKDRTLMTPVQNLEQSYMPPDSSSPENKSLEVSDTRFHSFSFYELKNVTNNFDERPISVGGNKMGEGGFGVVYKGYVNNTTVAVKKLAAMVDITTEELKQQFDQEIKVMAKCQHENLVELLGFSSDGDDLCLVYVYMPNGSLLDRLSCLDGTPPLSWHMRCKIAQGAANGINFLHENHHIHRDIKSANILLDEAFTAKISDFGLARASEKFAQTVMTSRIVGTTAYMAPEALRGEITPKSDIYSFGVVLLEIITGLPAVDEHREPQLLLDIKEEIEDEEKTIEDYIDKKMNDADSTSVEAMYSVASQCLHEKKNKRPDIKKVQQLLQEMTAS
Method in brief: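 GST-IRAK4 from insect cells (about 0.2 nM, linear range) was preincubated 15 min with compound (11 concentrations, 20 µM–0.073 nM) in HEPES pH 7.5 with MgCl2 and DTT before kinase reaction on a biotinylated peptide. Phosphopeptide was detected by TR-FRET (Eu anti-mouse-IgG/anti-phosphoserine/streptavidin-XL665, 1 h at 22°C) as the 665/620 nm ratio, normalized to no-compound and no-enzyme controls.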

canine Irak4 = target: T2, canine Irak4 (Canis lupus familiaris, UniProt A0A8I3S726); assay: Canine Irak4 kinase assay (TR-FRET); format: biochemical; conditions: 1 mM ATP, His6-tagged canine Irak4, average or median values
T2 sequence (A0A8I3S726 2-459): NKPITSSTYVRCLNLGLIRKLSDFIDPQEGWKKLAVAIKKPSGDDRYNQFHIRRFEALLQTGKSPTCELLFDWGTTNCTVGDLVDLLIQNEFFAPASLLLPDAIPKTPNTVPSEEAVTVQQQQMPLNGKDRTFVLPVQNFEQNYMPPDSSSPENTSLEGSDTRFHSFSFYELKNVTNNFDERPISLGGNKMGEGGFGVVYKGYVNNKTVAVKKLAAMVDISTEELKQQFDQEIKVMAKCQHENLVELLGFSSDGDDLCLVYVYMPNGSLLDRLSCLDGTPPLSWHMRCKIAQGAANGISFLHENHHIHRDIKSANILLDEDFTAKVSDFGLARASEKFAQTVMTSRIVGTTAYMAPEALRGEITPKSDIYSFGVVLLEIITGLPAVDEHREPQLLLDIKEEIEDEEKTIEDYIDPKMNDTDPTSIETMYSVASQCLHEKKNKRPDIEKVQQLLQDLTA

[1] = Metabolic stability in human liver microsomes; conditions: 1 µM compound; for CLblood, human microsomes: hepatic in vivo blood clearance calculated with well stirred liver model, '(stable)' given beside < 0.01; for Fmax, human microsomes: maximal oral bioavailability calculated with well stirred liver model, 0.5 mg/mL protein, '(stable)' given beside 100
human PBMCs = assay: In vitro LPS-induced cytokine (TNF-α) production in human PBMCs; format: cell-based; conditions: PBMC, 0.1 µg/mL LPS, 24 hours, 30 min preincubation, read-out: activity (LPS-induced TNF-α secretion in human PBMCs)
Description: The effect of the compounds of the general formula (I) on induced cytokine production in human PBMCs was examined.
Cytokine production was induced here by LPS, a TLR4 ligand, which leads to activation of the IRAK4-mediated signal path.
The human PBMCs were obtained from anti-coagulated human whole blood. To this end, 15 mL of Ficoll-Paque (Biochrom, Cat. No. L6115) were initially charged in Leucosep tubes and 20 mL of human blood were added. After centrifugation of the blood at 800 g for 15 min at room temperature, the plasma including the platelets was removed and discarded. The PBMCs were transferred into centrifugation tubes and made up with PBS (phosphate-buffered saline) (Gibco, Cat. No. 14190). The cell suspension was centrifuged at room temperature at 250 g for 10 min and the supernatant was discarded. The PBMCs were resuspended in complete medium (RPMI 1640, without L-glutamine (PAA, Cat. No. E15-039), 10% FCS; 50 U/mL penicillin, 50 µg/mL streptomycin (PAA, Cat. No. P11-010) and 1% L-glutamine (Sigma, Cat. No. G7513)). The assay was also carried out in complete medium. The PBMCs were sown in 96-well plates at a cell density of 2.5x10^5 cells/well. The compounds according to the invention were subjected to serial dilution in a constant volume of 100% DMSO and used in the assay at 8 different concentrations in the range from 10 µM to 3 nM such that the final DMSO concentration was 0.4% DMSO. Prior to the actual stimulation, the cells were then preincubated therewith for 30 min. To induce cytokine secretion, the cells were stimulated with 0.1 µg/mL LPS (Sigma, Escherichia coli 0128:B12, Cat. No. L2887) for 24 hours. Cell viability was determined using the CellTiter-Glo luminescent assay (Promega, Cat. No. G7571 (G755/G756A)) in accordance with the manufacturer's instructions. The amount of secreted TNF-α in the cell culture supernatant was determined using the Human ProInflammatory 9-Plex Tissue Culture Kit (MSD, Cat. No. K15007B) in accordance with the instructions of the manufacturer. By way of example, Example Compounds II-2, I-40, I-56, I-61 have activity ≤ 500 nM.

[2] = 1 µM, pH 7.4
[3] = Metabolic stability in dog liver microsomes; format: in vitro ADME; conditions: 1 µM compound; for CLblood, dog microsomes: hepatic in vivo blood clearance calculated with well stirred liver model, '(stable)' given beside < 0.01; for Fmax, dog microsomes: maximal oral bioavailability calculated with well stirred liver model, 0.5 mg/mL protein, '(stable)' given beside 100
Description: From the half-life the intrinsic clearances were calculated.

Row | Compound | IC50 (human IRAK4) [nM] | IC50 (canine Irak4) [nM] | CLblood, human microsomes [1] [mL/min/kg] | Fmax, human microsomes [1] [%] | CLblood, dog microsomes [3] [mL/min/kg] | Fmax, dog microsomes [3] [%] | IC50 (human PBMCs) [nM] | CLblood, human microsomes [2] | Fmax, human microsomes [2]
1 | CN1CC[C@H](Nc2nc(N3CCC(C(C)(C)O)CC3)c3cnn(-c4cccc(C(F)(F)F)c4)c3n2)C1 [Example I-13-1, 2-[1-(6-{[(3S)-1-methylpyrrolidin-3-yl]amino}-1-[3-(trifluoromethyl)phenyl]-1H-pyrazolo[3,4-d]pyrimidin-4-yl)piperidin-4-yl]propan-2-ol] | 13.1 | 26.4 | 8.33 | 62 |  |  |  |  | 
2 | CC(C)(O)C1CCN(c2nc(NC3CN(S(C)(=O)=O)C3)nc3c2cnn3-c2cccc(C(F)(F)F)c2)CC1 [Example I-14, 2-[1-(6-{[1-(methylsulfonyl)azetidin-3-yl]amino}-1-[3-(trifluoromethyl)phenyl]-1H-pyrazolo[3,4-d]pyrimidin-4-yl)piperidin-4-yl]propan-2-ol] | 12 | 12.7 | 1.2 | 95 |  |  |  |  | 
3 | C[C@H]1C[C@H](Nc2nc(N3CCC(C(C)(C)O)CC3)c3cnn(-c4cccc(C(F)(F)F)c4)c3n2)CN1 [Example I-40, 2-[1-(6-{[(3S,5S)-5-methylpyrrolidin-3-yl]amino}-1-[3-(trifluoromethyl)phenyl]-1H-pyrazolo[3,4-d]pyrimidin-4-yl)piperidin-4-yl]propan-2-ol] | 3.68 |  | 1.2 | 95 |  |  | ≤ 500 |  | 
4 | O=C1C[C@H](Nc2nc(N3CC(CC(=O)N4CC5CC(C4)O5)C3)c3cnn(-c4cccc(C(F)(F)F)c4)c3n2)CN1 [Example I-52, (4S)-4-[(4-{3-[2-(6-oxa-3-azabicyclo[3.1.1]heptan-3-yl)-2-oxoethyl]azetidin-1-yl}-1-[3-(trifluoromethyl)phenyl]-1H-pyrazolo[3,4-d]pyrimidin-6-yl)amino]pyrrolidin-2-one] | 7.99 |  |  |  |  |  |  | < 0.01 (stable) L/h/kg | 100 (stable) %
5 | CC(C)(O)C1CCN(c2nc(N[C@H]3C[C@](C)(N)C3)nc3c2cnn3-c2cccc(C(F)(F)F)c2)CC1 [Example I-57, 2-(1-{6-[(trans-3-amino-3-methylcyclobutyl)amino]-1-[3-(trifluoromethyl)phenyl]-1H-pyrazolo[3,4-d]pyrimidin-4-yl}piperidin-4-yl)propan-2-ol] | 1.82 | 1.98 | 0.67 | 97 |  |  |  |  | 
6 | CC(C)(O)C1CCN(c2nc(N[C@@H]3CNC(=O)C3)nc3c2cnn3-c2cccc(OC(F)F)c2)CC1 [IV-1, (4S)-4-({1-[3-(difluoromethoxy)phenyl]-4-[4-(2-hydroxypropan-2-yl)piperidin-1-yl]-1H-pyrazolo[3,4-d]pyrimidin-6-yl}amino)pyrrolidin-2-one] | 8.06 | 6.52 | 3 | 86 |  |  |  |  | 

The next lines start with results.

Row | IC50 (human IRAK4) [nM] | IC50 (canine Irak4) [nM] | CLblood, human microsomes [1] [mL/min/kg] | Fmax, human microsomes [1] [%] | CLblood, dog microsomes [3] [mL/min/kg] | Fmax, dog microsomes [3] [%] | Compound | IC50 (human PBMCs) [nM] | CLblood, human microsomes [2] | Fmax, human microsomes [2]
7 | 10.5 | 9.27 | 1.5 | 93 |  |  | CC(C)(O)C1CCN(c2nc(NC3CCS(=O)(=O)CC3)nc3c2cnn3-c2cccc(C(F)(F)F)c2)CC1 [Example I-5, 2-(1-{6-[(1,1-dioxidotetrahydro-2H-thiopyran-4-yl)amino]-1-[3-(trifluoromethyl)phenyl]-1H-pyrazolo[3,4-d]pyrimidin-4-yl)piperidin-4-yl)propan-2-ol] |  |  | 
8 | 8.82 | 5.41 | 2.83 | 87 |  |  | O=S1(=O)CCC(Nc2nc(N3CC(N4CCOCC4)C3)c3cnn(-c4cccc(C(F)(F)F)c4)c3n2)CC1 [Example I-23, N-(1,1-dioxidotetrahydro-2H-thiopyran-4-yl)-4-[3-(morpholin-4-yl)azetidin-1-yl]-1-[3-(trifluoromethyl)phenyl]-1H-pyrazolo[3,4-d]pyrimidin-6-amine] |  |  | 
9 | 3.46 |  | 1 | 95 | 1 | 97 | CS(=O)(=O)[C@H]1C[C@H](Nc2nc(N3CC(N4CCOCC4)C3)c3cnn(-c4cccc(C(F)(F)F)c4)c3n2)C1 [Example I-56, N-[trans-3-(methylsulfonyl)cyclobutyl]-4-[3-(morpholin-4-yl)azetidin-1-yl]-1-[3-(trifluoromethyl)phenyl]-1H-pyrazolo[3,4-d]pyrimidin-6-amine] | ≤ 500 |  | 
10 | 3.28 |  | 5.17 | 77 |  |  | CC1(O)CCN(C2CN(c3nc(N[C@H]4C[C@H](S(C)(=O)=O)C4)nc4c3cnn4-c3cccc(C(F)(F)F)c3)C2)CC1 [Example I-61, 4-methyl-1-[1-(6-{[trans-3-(methylsulfonyl)cyclobutyl]amino}-1-[3-(trifluoromethyl)-phenyl]-1H-pyrazolo[3,4-d]pyrimidin-4-yl)azetidin-3-yl]piperidin-4-ol] | ≤ 500 |  | 
11 | 6.68 |  | 2.5 | 88 | 1.2 | 97 | O=S1(=O)CCC(Nc2nc(N3CC(N4CCOCC4)C3)c3cnn(-c4cccc(C(F)F)c4)c3n2)CC1 [II-2, 1-[3-(difluoromethyl)phenyl]-N-(1,1-dioxidotetrahydro-2H-thiopyran-4-yl)-4-[3-(morpholin-4-yl)azetidin-1-yl]-1H-pyrazolo[3,4-d]pyrimidin-6-amine] | ≤ 500 |  | 
